Converted amounts (≈) assume the structure as drawn.
Tests used:
human GPR119 (hGPR119) = target: T1, human GPR119 (hGPR119) (Homo sapiens, UniProt Q8TDV5); test: Specific (agonistic) activity in vitro, cAMP increase (Lance Ultra cAMP kit) in CHO-K1 cells expressing hGPR119; type: cell-based; conditions: CHO-K1 hGPR119, cAMP
T1 construct: expressed in transfected cells; host or cells: CHO-K1 (Chinese hamster ovary)
T1 sequence (Q8TDV5 1-335): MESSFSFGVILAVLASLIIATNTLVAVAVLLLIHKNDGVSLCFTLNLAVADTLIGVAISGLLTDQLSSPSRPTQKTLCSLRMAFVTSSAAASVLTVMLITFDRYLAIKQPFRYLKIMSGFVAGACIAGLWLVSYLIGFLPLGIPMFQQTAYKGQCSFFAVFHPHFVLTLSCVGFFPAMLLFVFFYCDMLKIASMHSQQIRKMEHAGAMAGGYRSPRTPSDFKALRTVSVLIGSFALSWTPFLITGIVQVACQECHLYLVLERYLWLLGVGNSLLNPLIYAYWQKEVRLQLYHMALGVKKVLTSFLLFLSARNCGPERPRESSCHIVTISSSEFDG
Experimental: Specific activity was evaluated using an immortalized Chinese hamster ovary cell line CHO-K1 steadily expressed human GPR119 (hGPR119). The cells (10^7 ml^−1) were cultured in Dulbecco's modified Eagle medium (DMEM) modified with 10% fetal bovine serum (FBS), revolved continuously at 50 rpm at 37°C in 8% CO2 for 3–4 days. Lance Ultra cAMP kit (Perkin Elmer, Waltham, MA, USA) was chosen as the experimental platform ([13]). The experiments were performed in accordance to the manufacturer's instructions. The agonistic activity of the test compounds was estimated by the increase in intracellular cAMP concentration, assuming the hGPR119 activation is followed by the activation of cellular adenylate cyclase, which increases intracellular cAMP levels ([4], [14]). Known agonists of hGPR119 receptors were used as positive controls to determine the maximal possible effect (MPE). The activity of test compounds was expressed in terms of median effective concentration (EC50).

physchem = conditions: kinetic from dmso stock
[1] = Biotransformation in vitro, microsomal stability (mouse); type: in vitro ADME
Experimental: (§1) The metabolism of the compounds was studied in commercially available microsomal fractions derived from human and rat hepatocytes. Test compounds (0.5 μM) were incubated with microsomal fractions in the presence of NADPH during 30 min in a shaker at 37°C. Reactions were stopped at 0, 5, 10, 15, and 30 min by adding acetonitrile. After proteins precipitation, the remaining amount of the test compound in the supernatant was detected with high performance liquid chromatography tandem-mass spectrometry (HPLC-MS/MS) method using Agilent 1260 liquid chromatograph (Agilent Technologies, Santa Clara, CA, USA) and a QTRAP6500 triple quadrupole mass spectrometer with a TurboIonSpray electro-spraying module (ABSciex, Foster City, CA, USA) ([15]). Incubation was performed twice, with at least 2 measurements for each replicate (n ≥ 3). The half-life (T1/2), the clearance in vitro (CLint) and the remaining amount of substance (% of initial quantity) were calculated.

[2] = Biotransformation in vitro, microsomal stability (rat); type: in vitro ADME; conditions: for ER / CLh: Rat microsomal fraction; for CLh: in mL/min/kg (unit assumed); for microsomal CLint at 0.5 μM / half-life at 0.5 μM: liver microsomal fraction; for half-life at 0.5 μM: NADPH, read-out: t1/2, min
Experimental: as §1

[3] = Biotransformation in vitro, microsomal stability (human); type: in vitro ADME; conditions: for ER / CLh: Human microsomal fraction; for CLh: in mL/min/kg (unit assumed); for microsomal CLint at 0.5 μM / half-life at 0.5 μM: liver microsomal fraction; for half-life at 0.5 μM: NADPH, read-out: t1/2, min
Experimental: as §1

[4] = tested on: rats with streptozotocin-nicotinamide (STZ-NA) induced T2D; test: Hypoglycemic activity after continuous (28 days) oral administration in T2D rat model, OGTT; type: in vivo; conditions: daily oral ZB-16 1 mg/kg or sitagliptin 10 mg/kg for 28 days, STZ-NA T2D
Experimental: Procedures were performed in 40 female Wistar rats weighing 250–280 g. Streptozotocin-nicotinamide-induced rat model of T2D was used ([24], [25]). Briefly, streptozotocin (Sigma, St. Louis, MO, USA) was administered i.p. to overnight fasted rats (65 mg/kg in 100 mmol/l citrate buffer, Ph 4.5). Nicotinamide (Sigma, St. Louis, MO, USA) (230 mg/kg) dissolved in saline was administered i.p. 15 min before streptozotocin. STZ-NA T2D had been confirmed 72 h after in rats with blood glucose levels in a range 9–14 mmol/l measured in fasting (6 h) conditions. […] Following the continuous oral administration of sitagliptin (10 mg/kg), ZB-16 (1 mg/kg) or saline during 28 days STZ-NA T2D confirmation the fasting blood glucose levels were measured, and oral glucose tolerance test (OGTT) was performed. For OGTT rats received an oral dose of […] glucose dissolved in saline; blood glucose levels were monitored every 30 min for 2 h after glucose administration. Sitagliptin dose was chosen in accordance with published data ([26]).

CYP2D6 = target: T2, CYP2D6 (Homo sapiens, UniProt P10635); test: CYP inhibition, Vivid CYP450 Screening Kit; type: in vitro ADME; conditions: 0.0046 to 10 μM tested
T2 construct: purchased Invitrogen Corporation, Carlsbad, CA, USA
Experimental: (§2) Briefly, the reaction was initiated by adding NADP^+ and a substrate converted to fluorescent derivates by specific CYP isozyme. The reaction was terminated by adding 1M Tris. The fluorescence of the reaction product, which was proportional to CYP isozyme activity, was measured. […] The minimal signal was defined as the signal obtained without enzyme incubation. The inhibitory action of test compounds on the CYP isozymes was expressed in terms of median inhibitory concentration (IC50).

CYP2C19 = target: T3, CYP2C19 (Homo sapiens, UniProt P33261); test: CYP inhibition, Vivid CYP450 Screening Kit; type: in vitro ADME; conditions: 0.0046 to 10 μM tested
T3 construct: purchased Invitrogen Corporation, Carlsbad, CA, USA
Experimental: as §2

CYP2C9 = target: T4, CYP2C9 (Homo sapiens, UniProt P11712); test: CYP inhibition, Vivid CYP450 Screening Kit; type: in vitro ADME; conditions: 0.0046 to 10 μM tested
T4 construct: purchased Invitrogen Corporation, Carlsbad, CA, USA
Experimental: as §2

CYP1A2 = target: T5, CYP1A2 (Homo sapiens, UniProt P05177); test: CYP inhibition, Vivid CYP450 Screening Kit; type: in vitro ADME; conditions: 0.0046 to 10 μM tested
T5 construct: purchased Invitrogen Corporation, Carlsbad, CA, USA
T5 sequence (P05177 1-516): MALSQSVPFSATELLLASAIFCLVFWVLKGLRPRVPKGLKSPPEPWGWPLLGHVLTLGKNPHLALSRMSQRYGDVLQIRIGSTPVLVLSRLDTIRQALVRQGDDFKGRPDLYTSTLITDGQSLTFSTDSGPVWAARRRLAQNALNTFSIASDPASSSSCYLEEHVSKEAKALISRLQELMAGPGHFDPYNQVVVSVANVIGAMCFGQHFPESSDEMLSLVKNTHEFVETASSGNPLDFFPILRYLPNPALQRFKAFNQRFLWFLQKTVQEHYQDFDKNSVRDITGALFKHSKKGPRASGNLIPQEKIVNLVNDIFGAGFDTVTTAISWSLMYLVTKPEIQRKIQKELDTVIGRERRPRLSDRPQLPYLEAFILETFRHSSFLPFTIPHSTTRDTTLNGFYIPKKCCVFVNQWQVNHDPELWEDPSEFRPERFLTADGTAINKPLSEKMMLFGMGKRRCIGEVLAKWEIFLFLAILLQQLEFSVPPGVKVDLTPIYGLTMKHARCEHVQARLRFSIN
Experimental: as §2

CYP3A4 = target: T6, CYP3A4 (Homo sapiens, UniProt P08684); test: CYP inhibition, Vivid CYP450 Screening Kit; type: in vitro ADME; conditions: 0.0046 to 10 μM tested
T6 construct: purchased Invitrogen Corporation, Carlsbad, CA, USA
Experimental: as §2

hERG potassium channels = target: T7, hERG potassium channels (Homo sapiens, UniProt Q12809); test: Cardiac toxicity, Predictor hERG fluorescence polarization binding
T7 construct: purchased Invitrogen Corporation, Carlsbad, CA, USA
Experimental: Cardiac toxicity was evaluated by estimating the influence of each substance on hERG potassium channels using the in vitro test system Invitrogen® PredictorTM hERG (Invitrogen Corporation, Carlsbad, CA, USA), containing Predictor hERG membrane preparations, fluorescent tracer stock solution and an assay buffer solution. Experimental procedures were conducted in accordance with the PredictorTM hERG test system's manufacturer instructions. Assays were performed in 384-well microplates. Each well contained 5 μL aliquot of each concentration of test compound, 10 μL of (2X) membrane preparation and 5 μL of working tracer solution. The cumulative reaction volume was 20 μl with 1% of DMSO ([19]). All procedures were performed at 4 replicates for each concentration. The plate was allowed to incubate at room temperature for at least 1 h prior to fluorescence polarization measurements performed with a microplate reader Infinite M1000 PRO (Tecan).

[5] = Britton-Robinson universal buffer, pH 2, aqueous buffer
[6] = Britton-Robinson universal buffer, pH 4, aqueous buffer
[7] = Britton-Robinson universal buffer, pH 7, aqueous buffer

T7 sequence (Q12809 whole entry): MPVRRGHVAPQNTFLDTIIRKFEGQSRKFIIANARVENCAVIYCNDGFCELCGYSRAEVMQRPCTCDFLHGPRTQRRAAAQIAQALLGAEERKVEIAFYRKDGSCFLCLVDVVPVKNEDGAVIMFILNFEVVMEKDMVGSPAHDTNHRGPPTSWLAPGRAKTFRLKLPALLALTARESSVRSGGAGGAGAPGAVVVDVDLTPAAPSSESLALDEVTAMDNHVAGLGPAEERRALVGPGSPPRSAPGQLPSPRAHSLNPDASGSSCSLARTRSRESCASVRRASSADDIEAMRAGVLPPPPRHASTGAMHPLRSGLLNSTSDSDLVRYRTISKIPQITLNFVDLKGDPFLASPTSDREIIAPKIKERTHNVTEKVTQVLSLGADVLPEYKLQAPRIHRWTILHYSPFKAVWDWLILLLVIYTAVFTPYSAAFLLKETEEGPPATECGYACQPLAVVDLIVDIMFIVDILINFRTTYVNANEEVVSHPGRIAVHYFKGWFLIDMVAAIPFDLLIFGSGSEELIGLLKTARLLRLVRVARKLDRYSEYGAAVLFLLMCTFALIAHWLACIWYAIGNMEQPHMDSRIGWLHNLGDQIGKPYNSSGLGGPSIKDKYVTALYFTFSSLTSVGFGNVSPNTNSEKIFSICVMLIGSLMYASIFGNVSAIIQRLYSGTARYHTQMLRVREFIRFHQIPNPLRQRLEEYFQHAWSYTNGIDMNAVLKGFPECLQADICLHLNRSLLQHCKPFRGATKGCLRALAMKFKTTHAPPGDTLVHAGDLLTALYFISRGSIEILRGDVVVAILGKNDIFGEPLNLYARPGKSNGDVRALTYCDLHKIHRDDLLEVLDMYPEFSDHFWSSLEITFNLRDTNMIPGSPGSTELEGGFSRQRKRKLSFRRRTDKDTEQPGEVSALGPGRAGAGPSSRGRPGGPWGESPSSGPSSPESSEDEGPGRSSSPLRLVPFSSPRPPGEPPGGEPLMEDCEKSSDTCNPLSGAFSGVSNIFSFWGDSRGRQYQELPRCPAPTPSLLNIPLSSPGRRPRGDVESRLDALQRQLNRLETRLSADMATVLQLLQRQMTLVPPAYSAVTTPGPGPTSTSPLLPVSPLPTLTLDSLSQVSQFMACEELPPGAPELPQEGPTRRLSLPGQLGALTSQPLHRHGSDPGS
T4 sequence (P11712 whole entry): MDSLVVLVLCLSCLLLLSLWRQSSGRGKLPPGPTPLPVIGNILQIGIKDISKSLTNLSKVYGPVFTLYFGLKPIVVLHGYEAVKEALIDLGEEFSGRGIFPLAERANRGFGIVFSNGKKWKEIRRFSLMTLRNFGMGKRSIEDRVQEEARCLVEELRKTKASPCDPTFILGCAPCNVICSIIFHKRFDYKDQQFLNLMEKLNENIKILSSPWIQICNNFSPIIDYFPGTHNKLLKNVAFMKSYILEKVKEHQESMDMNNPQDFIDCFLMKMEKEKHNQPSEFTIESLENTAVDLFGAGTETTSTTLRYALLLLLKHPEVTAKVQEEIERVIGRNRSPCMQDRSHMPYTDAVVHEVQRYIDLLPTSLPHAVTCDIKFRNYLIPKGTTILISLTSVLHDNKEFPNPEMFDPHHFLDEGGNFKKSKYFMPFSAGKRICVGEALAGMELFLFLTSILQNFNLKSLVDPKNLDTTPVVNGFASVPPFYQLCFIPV
T3 sequence (P33261 whole entry): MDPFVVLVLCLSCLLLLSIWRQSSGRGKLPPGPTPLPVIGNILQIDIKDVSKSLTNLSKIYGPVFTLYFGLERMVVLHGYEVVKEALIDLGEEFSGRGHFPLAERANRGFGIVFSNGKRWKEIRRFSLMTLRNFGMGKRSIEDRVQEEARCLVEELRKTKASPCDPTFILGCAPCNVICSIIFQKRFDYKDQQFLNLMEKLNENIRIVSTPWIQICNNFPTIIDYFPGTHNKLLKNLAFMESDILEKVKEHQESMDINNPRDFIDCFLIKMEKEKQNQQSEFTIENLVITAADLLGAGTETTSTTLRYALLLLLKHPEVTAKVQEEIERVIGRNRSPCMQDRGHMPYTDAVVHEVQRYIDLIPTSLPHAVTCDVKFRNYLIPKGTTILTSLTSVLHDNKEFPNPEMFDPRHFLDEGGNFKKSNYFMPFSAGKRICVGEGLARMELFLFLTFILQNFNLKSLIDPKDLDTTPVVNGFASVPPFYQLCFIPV
T2 sequence (P10635 whole entry): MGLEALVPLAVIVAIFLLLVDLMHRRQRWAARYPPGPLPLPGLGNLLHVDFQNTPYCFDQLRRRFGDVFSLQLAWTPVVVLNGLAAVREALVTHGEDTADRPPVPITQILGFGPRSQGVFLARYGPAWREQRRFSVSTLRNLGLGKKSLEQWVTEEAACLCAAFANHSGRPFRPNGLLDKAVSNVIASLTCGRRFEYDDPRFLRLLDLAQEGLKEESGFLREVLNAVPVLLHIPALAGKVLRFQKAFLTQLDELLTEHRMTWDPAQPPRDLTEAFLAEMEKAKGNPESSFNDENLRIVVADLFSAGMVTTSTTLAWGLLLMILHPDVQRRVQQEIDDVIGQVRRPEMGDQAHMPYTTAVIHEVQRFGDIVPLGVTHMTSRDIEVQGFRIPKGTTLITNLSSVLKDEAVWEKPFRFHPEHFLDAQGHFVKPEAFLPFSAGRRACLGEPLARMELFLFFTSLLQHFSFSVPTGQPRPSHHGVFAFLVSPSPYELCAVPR
T6 sequence (P08684 whole entry): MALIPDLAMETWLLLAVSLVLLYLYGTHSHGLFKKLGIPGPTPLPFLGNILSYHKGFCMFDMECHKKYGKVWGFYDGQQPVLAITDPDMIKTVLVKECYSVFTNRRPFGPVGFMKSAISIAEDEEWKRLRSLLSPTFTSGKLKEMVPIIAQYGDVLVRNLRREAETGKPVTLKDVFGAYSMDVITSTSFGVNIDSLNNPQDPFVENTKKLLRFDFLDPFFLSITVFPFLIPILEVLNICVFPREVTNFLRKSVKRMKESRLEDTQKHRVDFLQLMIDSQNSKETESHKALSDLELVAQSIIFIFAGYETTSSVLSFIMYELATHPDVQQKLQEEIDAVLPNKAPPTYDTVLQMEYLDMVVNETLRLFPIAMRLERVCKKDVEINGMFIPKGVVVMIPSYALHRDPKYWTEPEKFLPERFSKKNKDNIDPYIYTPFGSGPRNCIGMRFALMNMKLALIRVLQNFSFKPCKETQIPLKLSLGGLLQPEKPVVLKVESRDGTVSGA

| SMILES | EC50 (human GPR119 (hGPR119)) [nM] | solubility (physchem; [5]) [µM] | solubility (physchem; [6]) [µM] | solubility (physchem; [7]) [µM] | ER [2] | CLh [2] | microsomal CLint at 0.5 μM [2] [µL/min/mg] | half-life at 0.5 μM [2] [min] | ER [3] | CLh [3] | microsomal CLint at 0.5 μM [3] [µL/min/mg] | half-life at 0.5 μM [3] [min] | also measured |
| --- | --- | --- | --- | --- | --- | --- | --- | --- | --- | --- | --- | --- | --- |
| N[C@@H](CC(=O)N1CCn2c(nnc2C(F)(F)F)C1)Cc1cc(F)c(F)cc1F [sitagliptin, reference compound] |  |  |  |  |  |  |  |  |  |  |  |  | blood glucose levels [4]: reduction |
| CCN1C(=O)c2ccccc2S(=O)(=O)c2ccc(C(=O)NCCc3ccc(Cl)cc3)cc21 [C530-0315] | 71.3 |  |  |  |  |  |  |  |  |  |  |  |  |
| CC/C(=C(/CC)c1ccc(O)cc1)c1ccc(O)cc1 [Diethylstilbestrol, reference compound] |  |  |  |  |  |  |  |  |  |  |  |  | Solubility (μM) UB, 2% DMSO pH 2 (pH 2): 15 μM; Solubility (μM) UB, 2% DMSO pH 4 (pH 4): 14 μM; Solubility (μM) UB, 2% DMSO pH 7 (pH 7): 14 μM; solubility (physchem; pH 2, aqueous buffer): 12 µM (≈ 3.22 µg/mL); solubility (physchem; pH 4, aqueous buffer): 10 µM (≈ 2.68 µg/mL); solubility (physchem; pH 7, aqueous buffer): 12 µM (≈ 3.22 µg/mL) |
| CCN1C(=O)c2ccccc2S(=O)(=O)c2ccc(C(=O)NCc3ccc(F)cc3)cc21 [C530-0339] | 10700 |  |  |  |  |  |  |  |  |  |  |  |  |

Continued, in another order:

| EC50 (human GPR119 (hGPR119)) [nM] | solubility (physchem; [5]) [µM] | solubility (physchem; [6]) [µM] | solubility (physchem; [7]) [µM] | ER [2] | CLh [2] | microsomal CLint at 0.5 μM [2] [µL/min/mg] | half-life at 0.5 μM [2] [min] | ER [3] | CLh [3] | microsomal CLint at 0.5 μM [3] [µL/min/mg] | half-life at 0.5 μM [3] [min] | SMILES | also measured |
| --- | --- | --- | --- | --- | --- | --- | --- | --- | --- | --- | --- | --- | --- |
| 63.5 | 25 (≈ 11.5 µg/mL) | < 3 | < 3 |  |  |  |  |  |  |  |  | O=S1(=O)COc2cc(-c3ccc(OCC4CCN(CC(F)(F)F)CC4)c(F)c3)ccc21 [ZB-18] |  |
|  | < 3 | < 3 | < 3 | 0.74 | 40.97 | 89.2 | 31.1 | 0.94 | 20.44 | 666 | 4.16 | CC(C)(C)OC(=O)N1CCC(COc2ccc(-c3ccc4c(c3)OCS4(=O)=O)cc2F)CC1 [ZB-09] | CLh ([1]; Mouse microsomal fraction): 84.06; ER ([1]; Mouse microsomal fraction): 0.93; microsomal CLint at 0.5 μM ([1]; liver microsomal fraction): 324 µL/min/mg; half-life at 0.5 μM ([1]; liver microsomal fraction, read-out: t1/2, min): 8.57 min; EC50 (human GPR119 (hGPR119); values of the text): 4 nM |
| 11 | < 3 | < 3 | < 3 | 0.81 | 44.29 | 126 | 21.9 | 0.95 | 20.66 | 1110 | 2.5 | CC(C)(C)OC(=O)N1CCC(COc2ccc(-c3ccc4c(c3)OCS4(=O)=O)cn2)CC1 [ZB-19] |  |
| 29.3 | < 3 | < 3 | < 3 | 0.41 | 22.53 | 21.2 | 131 | 0.76 | 16.57 | 68 | 40.8 | O=S1(=O)COc2cc(-c3ccc(OCC4CCN(c5ncc(Cl)cn5)CC4)nc3)ccc21 [ZB-20] | EC50 (human GPR119 (hGPR119); values of the text): 29 nM; IC50 (CYP2D6): > 10000 nM; IC50 (CYP2C19): > 10000 nM; IC50 (CYP2C9): > 10000 nM; IC50 (CYP1A2): > 10000 nM; IC50 (CYP3A4): > 10000 nM; Average polarization mP (n = 4) (hERG potassium channels; 1 μM): 261 mP; Unbound hERG % (hERG potassium channels; 1 μM): 89%; Average polarization mP (n = 4) (hERG potassium channels; 10 μM): 263 mP; Unbound hERG % (hERG potassium channels; 10 μM): 91% |
| 12.5 | < 3 | < 3 | < 3 |  |  |  |  |  |  |  |  | CC(C)OC(=O)N1CCC(COc2ccc(-c3ccc4c(c3)OCS4(=O)=O)cc2F)CC1 [ZB-17] |  |
